In patent US20250275988A1, “FORMULATION FOR TREATING URINARY SYSTEM DISORDERS” (WATERSHED MEDICAL, INC., priority 2022, published 2025):
Values after ≈ are worked out from the molar mass of the structure shown. Read-outs that look alike come from different tables or passages of the source.

Experiments:
[1] = anti-bacterial properties of SSD degradation products; conditions: compared with SSD before degradation in the bladder
Excerpt: These degradation products include, for example, sulfanilic acid; sulfanilamide; sulfaguanidine, the guanidine derivative of sulfanilamide; and […].

[2] = system: MDR Ecoli and non-MDR Ecoli isolates; experiment: MIC90 of antimicrobial agents; assay type: cell-based
[3] = cited from earlier work
[4] = density and max drug loading of antimicrobial agents considered for carrier particles; assay type: physicochemical; conditions: Table 7
[5] = density of materials; assay type: physicochemical; conditions: Table 4
[6] = agents marked *: tested against both MDR Ecoli and non-MDR Ecoli isolates, read-out: MIC90
[7] = tested against non-MDR Ecoli isolates only, read-out: MIC90
[8] = agents marked *: tested against both MDR Ecoli and non-MDR Ecoli isolates
[9] = tested against non-MDR Ecoli isolates only

Q: With `Nc1ccccn1` [2-aminopyridine] as the compound, how does the anti-bacterial properties [1] read?
A: Its anti-bacterial properties is “comparable to the original compound”.

Q: Which MIC90 [2, 6] does the source give for `NCC[C@H](O)C(=O)N[C@@H]1C[C@H](N)[C@@H](O[C@H]2O[C@H](CN)[C@@H](O)[C@H](O)[C@H]2O)[C@H](O)[C@H]1O[C@H]1O[C@H](CO)[C@@H](O)[C@H](N)[C@H]1O` [Amikacin] here?
A: Its MIC90 is 4 µg/mL (≈ 6.83 µM).

Q: What about the solubility in water [3] of the same compound?
A: Its solubility in water is 50 mg/mL (≈ 85400 µM).

Q: What about the Density [4] of the same compound?
A: Its Density is 1.6 g/mL.

Q: What does the source list for `C[C@H]1[C@H](NC(=O)/C(=N\OC(C)(C)C(=O)O)c2csc(N)n2)C(=O)N1S(=O)(=O)O` [Aztreoman]?
A: MIC90 [2, 7]: 16 µg/mL (≈ 36.7 µM); Density [4]: 1.83 g/mL

Q: With `CO/N=C(\C(=O)N[C@@H]1C(=O)N2C(C(=O)[O-])=C(C[N+]3(C)CCCC3)CS[C@H]12)c1csc(N)n1` [Cefepime] as the compound, how does the MIC90 [2, 7] read?
A: The MIC90 was 8 µg/mL (≈ 16.6 µM).

Q: And the Density [4]?
A: Its Density is 1.6 g/mL.

Q: Which MIC90 [2, 7] does the source give for `CO[C@@]1(NC(=O)Cc2cccs2)C(=O)N2C(C(=O)O)=C(COC(N)=O)CS[C@@H]21` [Cefoxitin] here?
A: Its MIC90 is 16 µg/mL (≈ 37.4 µM).

Q: And the Density [4]?
A: The Density was 1.6 g/mL.

Q: For `CC(C)(O/N=C(\C(=O)N[C@@H]1C(=O)N2C(C(=O)[O-])=C(C[n+]3ccccc3)CS[C@H]12)c1csc(N)n1)C(=O)O` [Ceftazidime], which MIC90 [2, 7] is on record?
A: The MIC90 was 8 µg/mL (≈ 14.6 µM).

Q: And the Density [4]?
A: Its Density is 1.6 g/mL.

Q: Which results are given for `[H]/N=C(\N/C(=N/[H])NCCCCCCNC(=N)NC(=N)Nc1ccc(Cl)cc1)Nc1ccc(Cl)cc1` [Chlorohexidine]?
A: MIC90 [2, 7]: 3 µg/mL (≈ 5.94 µM); Density [4]: 1.06 g/mL

Q: With `C[C@@H](O)[C@H]1C(=O)N2C(C(=O)O)=C(S[C@@H]3CN[C@H](CNS(N)(=O)=O)C3)[C@H](C)[C@H]12` [Doripenem] as the compound, how does the MIC90 [2, 7] read?
A: The MIC90 was at most 0.12 µg/mL.

Q: What does the source list for `C[C@@H](O)[C@H]1C(=O)N2C(C(=O)O)=C(S[C@@H]3CN[C@H](C(=O)Nc4cccc(C(=O)O)c4)C3)[C@H](C)[C@H]12` [Ertapenem]?
A: MIC90 [2, 6]: 0.03 µg/mL (≈ 0.0631 µM); Density [4]: 1.6 g/mL

Q: For `CCCCCCCCCCCCCCCCCCCCCC(=O)OCC(O)CO` (centres unmarked) [Glyceryl behenate], which Density [5] is on record?
A: The Density was 0.942 g/mL.

Q: Which Density [5] does the source give for `CCCCCCCCCCCCCC(=O)OCC(COC(=O)CCCCCCCCCCCCC)OC(=O)CCCCCCCCCCCCC` [Glyceryl trimyristate] here?
A: The Density was 0.885 g/mL.

Q: For `CCCCCCCCCCCCCCCC(=O)OCC(COC(=O)CCCCCCCCCCCCCCC)OC(=O)CCCCCCCCCCCCCCC` [Glyceryl tripalmitate], which Density [5] is on record?
A: The Density was 0.8752 g/mL.

Q: For `CCCCCCCCCCCCCCCCCC(=O)OCC(COC(=O)CCCCCCCCCCCCCCCCC)OC(=O)CCCCCCCCCCCCCCCCC` [Glyceryl tristearate], which Density [5] is on record?
A: Its Density is 0.862 g/mL.

Q: With `C[C@@H](O)[C@H]1C(=O)N2C(C(=O)O)=C(SCCN=CN)C[C@H]12` [Imipenem] as the compound, how does the MIC90 [2, 6] read?
A: Its MIC90 is at most 0.12 µg/mL.

Q: Which MIC90 [2, 7] does the source give for `C[C@@H](O)[C@H]1C(=O)N2C(C(=O)O)=C(S[C@@H]3CN[C@H](C(=O)N(C)C)C3)[C@H](C)[C@H]12` [Meropenem] here?
A: Its MIC90 is at most 0.06 µg/mL.

Q: What about the Density [4] of the same compound?
A: Its Density is 1.4 g/mL.

Q: Which Density [5] does the source give for `CCCCCCCCCCCCCCCCCCO` [Stearyl alcohol] here?
A: Its Density is 0.812 g/mL.

Q: With `CN(C)c1cc(NC(=O)CNC(C)(C)C)c(O)c2c1C[C@H]1C[C@H]3[C@H](N(C)C)C(O)=C(C(N)=O)C(=O)[C@@]3(O)C(O)=C1C2=O` [Tigecycline] as the compound, how does the MIC90 [2] read?
A: The MIC90 was 0.25 µg/mL (≈ 0.427 µM).

Q: What about the Density [4] of the same compound?
A: The Density was 1.5 g/mL.

Q: Which results are given for `NC[C@H]1O[C@H](O[C@H]2[C@H](O)[C@@H](O[C@H]3O[C@H](CO)[C@@H](O)[C@H](N)[C@H]3O)[C@H](N)C[C@@H]2N)[C@H](N)C[C@@H]1O` [Tobramycin]?
A: MIC90 [2, 7]: 8 µg/mL (≈ 17.1 µM); Density [4]: 1.5 g/mL

Q: With `[H]/N=C(/N)NS(=O)(=O)c1ccc(N)cc1` [sulfaguanidine] as the compound, how does the anti-bacterial properties [1] read?
A: The anti-bacterial properties was “comparable to the original compound”.

Q: Which anti-bacterial properties [1] does the source give for `Nc1ccc(S(N)(=O)=O)cc1` [sulfanilamide] here?
A: Its anti-bacterial properties is “comparable to the original compound”.

Q: With `Nc1ccc(S(=O)(=O)O)cc1` [sulfanilic acid] as the compound, how does the anti-bacterial properties [1] read?
A: Its anti-bacterial properties is “comparable to the original compound”.

Q: What does the source list for Cefoperazone-avibactam?
A: MIC90 [2, 8]: 0.25 ppm; Density [4]: 1.5 g/mL

Q: With Cefoperazone-sulbactam as the compound, how does the MIC90 [2, 9] read?
A: The MIC90 was 4 ppm.

Q: With Cefoperazone-tazobacatam as the compound, how does the MIC90 [2, 8] read?
A: Its MIC90 is 0.5 ppm.

Q: And the Density [4]?
A: Its Density is 1.5 g/mL.

Q: For Colistin, which MIC90 [2, 8] is on record?
A: The MIC90 was at most 0.5 ppm.

Q: Which results are given for Piperacillin-tazobactam?
A: MIC90 [2, 9]: 4 ppm; Density [4]: 1.5 g/mL

Q: Which MIC90 [2, 8] does the source give for Polymxin B here?
A: The MIC90 was 1 ppm.
